Common to all, as to type: biochemical
One experiment addresses T1, PI3K delta (Homo sapiens, UniProt O00329).
T1 construct: for the full-length p110-d subunit are generated and fused by overlapping PCR; His tag (C); made in house; host or cells: baculovirus; Tn5 (Trichoplusia ni) or TiniPro insect cells
Description: PI3 kinase assay (Kinase-Glo luminescence), PI3K delta. The note with it: Enzymatic Data; read-out: PI3K delta IC50 [umol]. The procedure, abridged:
(§1)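 Recombinant PI3K constructs (alfa 10 nM, delta 10 nM, gamma 150 nM) with 1 μM ATP and 10 μg/mL phosphatidylinositol in Tris pH 7.5, MgCl2, NaCl, CHAPS, DTT; 60 min (alfa, delta) or 120 min (gamma) at room temperature. ATP depletion read by Kinase-Glo luminescence; IC50 from 4-parameter logistic fit over 8 concentrations.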
Background: In Kinase-Glo more light means more ATP remaining.

In another experiment the target is T2, PI3K beta (Homo sapiens, UniProt P42338).
T2 construct: for the full-length p110-b subunit are generated and fused by overlapping PCR; His tag (C); made in house; host or cells: baculovirus; Tn5 (Trichoplusia ni) or TiniPro insect cells
Description: PI3 kinase assay (Kinase-Glo luminescence), PI3K beta. The settings on record: Enzymatic Data; read-out: PI3K beta IC50 [umol]. In a few lines:
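PI3Kβ (25 nM, BV-949) with 10 μg/mL phosphatidylinositol in Tris pH 7.5/MgCl2/NaCl/CHAPS/DTT buffer; reaction started with 1 μM ATP, 60 min at room temperature. ATP depletion read by Kinase-Glo luminescence; 8-point dilutions, IC50 by four-parameter logistic fit.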

The target of the next experiment is T3, PI3K gamma (Homo sapiens, UniProt P48736).
T3 construct: PI3Kγ BV-950 p110g(D144aa)-C-Term His Tag; His tag (C); made in house; host or cells: construct from the Roger Williams lab (MRC LMB) in pVL1393; baculovirus; Tn5 (Trichoplusia ni) or TiniPro insect cells
Put plainly: PI3 kinase assay (Kinase-Glo luminescence), PI3K gamma. The settings on record: Enzymatic Data; read-out: PI3K gamma IC50 [umol]. The procedure, abridged: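 Percent inhibition at eight concentrations (typically 10 to 0.003 […]) fitted to a four-parameter logistic model to give IC50. Reaction initiated with ATP; final ATP 1 μM and phosphatidylinositol 10 μg/mL; ATP consumption read by Kinase-Glo luminescence.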

A further experiment has as its target T4, PI3K alfa (Homo sapiens, UniProt P42336).
T4 construct: for the p110-a subunit (with a deletion of the first 20 amino acids); His tag (C); made in house; host or cells: baculovirus; Tn5 (Trichoplusia ni) or TiniPro insect cells
Description: PI3 kinase assay (Kinase-Glo luminescence), PI3K alfa. The note with it: Enzymatic Data; read-out: PI3K alfa IC50 [umol]. In a few lines: as §1

Molecules are shown by their SMILES. pIC50: −log10 of the molar value. Where only a bound is given, the exact number is not on record here.

T4 sequence (P42336 with tags, fused parts or gaps limits assumed): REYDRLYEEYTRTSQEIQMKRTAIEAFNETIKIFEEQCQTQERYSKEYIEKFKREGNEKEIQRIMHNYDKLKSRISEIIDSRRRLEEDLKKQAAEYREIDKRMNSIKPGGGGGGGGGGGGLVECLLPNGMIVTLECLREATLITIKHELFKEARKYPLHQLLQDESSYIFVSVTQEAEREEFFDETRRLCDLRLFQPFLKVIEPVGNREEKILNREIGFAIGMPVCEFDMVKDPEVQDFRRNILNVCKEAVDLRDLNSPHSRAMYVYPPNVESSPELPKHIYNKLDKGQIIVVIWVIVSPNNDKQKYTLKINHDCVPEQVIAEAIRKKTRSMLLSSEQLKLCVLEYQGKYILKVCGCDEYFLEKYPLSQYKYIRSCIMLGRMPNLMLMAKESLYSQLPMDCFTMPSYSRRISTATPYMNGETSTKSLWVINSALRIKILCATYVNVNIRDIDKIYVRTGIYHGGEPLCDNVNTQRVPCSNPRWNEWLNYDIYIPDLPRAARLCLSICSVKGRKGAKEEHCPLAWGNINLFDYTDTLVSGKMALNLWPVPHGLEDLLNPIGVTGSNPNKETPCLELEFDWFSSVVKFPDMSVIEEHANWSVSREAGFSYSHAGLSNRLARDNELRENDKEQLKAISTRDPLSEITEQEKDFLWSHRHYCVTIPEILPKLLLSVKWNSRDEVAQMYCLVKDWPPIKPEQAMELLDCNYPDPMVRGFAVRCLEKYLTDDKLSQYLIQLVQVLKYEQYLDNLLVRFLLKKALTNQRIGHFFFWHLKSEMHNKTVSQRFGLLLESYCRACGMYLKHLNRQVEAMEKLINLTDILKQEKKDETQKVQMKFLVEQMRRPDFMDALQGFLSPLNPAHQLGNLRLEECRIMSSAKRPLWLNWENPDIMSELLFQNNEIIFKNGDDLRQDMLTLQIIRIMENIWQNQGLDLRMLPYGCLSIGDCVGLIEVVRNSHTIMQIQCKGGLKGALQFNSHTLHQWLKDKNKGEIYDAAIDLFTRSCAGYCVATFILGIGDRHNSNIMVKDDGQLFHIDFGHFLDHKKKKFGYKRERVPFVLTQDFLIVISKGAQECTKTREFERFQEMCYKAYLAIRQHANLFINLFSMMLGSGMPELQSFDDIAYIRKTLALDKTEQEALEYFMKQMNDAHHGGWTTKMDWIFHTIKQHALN
T1 sequence (O00329 with tags, fused parts or gaps limits assumed): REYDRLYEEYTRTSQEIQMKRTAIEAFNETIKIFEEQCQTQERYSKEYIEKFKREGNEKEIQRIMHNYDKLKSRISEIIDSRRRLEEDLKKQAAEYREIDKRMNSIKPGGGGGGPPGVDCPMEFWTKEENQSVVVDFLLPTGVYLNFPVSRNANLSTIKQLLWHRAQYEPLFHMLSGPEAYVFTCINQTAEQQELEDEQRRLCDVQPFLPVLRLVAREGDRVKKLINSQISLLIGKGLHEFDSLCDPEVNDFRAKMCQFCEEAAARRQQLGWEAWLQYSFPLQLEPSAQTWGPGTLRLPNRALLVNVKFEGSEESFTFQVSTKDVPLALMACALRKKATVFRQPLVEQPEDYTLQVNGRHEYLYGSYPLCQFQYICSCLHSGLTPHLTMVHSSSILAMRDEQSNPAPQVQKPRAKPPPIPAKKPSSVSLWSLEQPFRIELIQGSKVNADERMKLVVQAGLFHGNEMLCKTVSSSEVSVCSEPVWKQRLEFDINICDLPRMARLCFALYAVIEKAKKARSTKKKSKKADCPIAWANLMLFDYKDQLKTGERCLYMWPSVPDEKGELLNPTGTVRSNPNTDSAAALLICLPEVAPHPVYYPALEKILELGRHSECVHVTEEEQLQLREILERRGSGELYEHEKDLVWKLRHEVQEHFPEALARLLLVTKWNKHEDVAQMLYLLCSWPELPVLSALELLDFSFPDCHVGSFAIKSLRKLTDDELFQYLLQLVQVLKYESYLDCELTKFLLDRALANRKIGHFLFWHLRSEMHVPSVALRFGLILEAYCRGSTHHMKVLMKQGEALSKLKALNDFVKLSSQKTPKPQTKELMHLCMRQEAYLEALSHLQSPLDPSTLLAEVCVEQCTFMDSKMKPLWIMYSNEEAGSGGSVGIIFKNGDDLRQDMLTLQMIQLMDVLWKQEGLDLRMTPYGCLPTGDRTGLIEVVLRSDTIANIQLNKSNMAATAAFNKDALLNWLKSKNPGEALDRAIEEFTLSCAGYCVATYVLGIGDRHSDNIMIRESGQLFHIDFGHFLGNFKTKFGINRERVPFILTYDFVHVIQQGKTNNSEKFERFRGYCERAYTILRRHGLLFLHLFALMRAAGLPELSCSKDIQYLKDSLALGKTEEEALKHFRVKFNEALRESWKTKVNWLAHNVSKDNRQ
T2 sequence (P42338 with tags, fused parts or gaps limits assumed): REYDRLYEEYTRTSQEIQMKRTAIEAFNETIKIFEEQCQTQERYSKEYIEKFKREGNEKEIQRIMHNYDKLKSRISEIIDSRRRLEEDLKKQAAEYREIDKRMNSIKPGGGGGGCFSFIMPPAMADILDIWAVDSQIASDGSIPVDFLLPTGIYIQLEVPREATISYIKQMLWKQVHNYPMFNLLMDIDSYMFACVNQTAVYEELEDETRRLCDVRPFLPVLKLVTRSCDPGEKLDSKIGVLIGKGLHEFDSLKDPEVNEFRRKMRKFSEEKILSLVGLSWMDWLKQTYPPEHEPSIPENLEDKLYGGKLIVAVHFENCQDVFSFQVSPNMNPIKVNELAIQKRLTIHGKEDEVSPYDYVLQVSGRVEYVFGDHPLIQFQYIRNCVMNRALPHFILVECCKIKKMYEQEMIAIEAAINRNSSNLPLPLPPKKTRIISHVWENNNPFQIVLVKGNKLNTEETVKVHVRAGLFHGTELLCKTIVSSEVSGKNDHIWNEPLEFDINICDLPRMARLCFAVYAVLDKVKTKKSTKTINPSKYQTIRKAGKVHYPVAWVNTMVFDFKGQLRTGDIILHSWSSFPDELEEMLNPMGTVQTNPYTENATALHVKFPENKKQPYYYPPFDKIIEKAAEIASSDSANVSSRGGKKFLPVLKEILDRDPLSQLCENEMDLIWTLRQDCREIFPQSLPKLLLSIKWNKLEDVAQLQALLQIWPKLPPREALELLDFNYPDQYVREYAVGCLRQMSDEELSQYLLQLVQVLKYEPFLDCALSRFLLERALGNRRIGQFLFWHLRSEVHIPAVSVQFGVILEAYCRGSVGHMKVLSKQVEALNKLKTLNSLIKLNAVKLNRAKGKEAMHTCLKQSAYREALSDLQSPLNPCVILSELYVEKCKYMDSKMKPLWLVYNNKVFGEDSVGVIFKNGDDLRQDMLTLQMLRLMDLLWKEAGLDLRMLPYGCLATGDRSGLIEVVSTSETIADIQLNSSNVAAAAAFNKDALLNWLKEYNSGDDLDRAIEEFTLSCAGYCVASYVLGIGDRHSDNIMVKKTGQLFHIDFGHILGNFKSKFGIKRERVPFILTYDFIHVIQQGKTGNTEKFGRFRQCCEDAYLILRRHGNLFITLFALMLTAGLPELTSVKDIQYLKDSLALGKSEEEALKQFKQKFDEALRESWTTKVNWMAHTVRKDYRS
T3 sequence (P48736 144-1102 limits assumed): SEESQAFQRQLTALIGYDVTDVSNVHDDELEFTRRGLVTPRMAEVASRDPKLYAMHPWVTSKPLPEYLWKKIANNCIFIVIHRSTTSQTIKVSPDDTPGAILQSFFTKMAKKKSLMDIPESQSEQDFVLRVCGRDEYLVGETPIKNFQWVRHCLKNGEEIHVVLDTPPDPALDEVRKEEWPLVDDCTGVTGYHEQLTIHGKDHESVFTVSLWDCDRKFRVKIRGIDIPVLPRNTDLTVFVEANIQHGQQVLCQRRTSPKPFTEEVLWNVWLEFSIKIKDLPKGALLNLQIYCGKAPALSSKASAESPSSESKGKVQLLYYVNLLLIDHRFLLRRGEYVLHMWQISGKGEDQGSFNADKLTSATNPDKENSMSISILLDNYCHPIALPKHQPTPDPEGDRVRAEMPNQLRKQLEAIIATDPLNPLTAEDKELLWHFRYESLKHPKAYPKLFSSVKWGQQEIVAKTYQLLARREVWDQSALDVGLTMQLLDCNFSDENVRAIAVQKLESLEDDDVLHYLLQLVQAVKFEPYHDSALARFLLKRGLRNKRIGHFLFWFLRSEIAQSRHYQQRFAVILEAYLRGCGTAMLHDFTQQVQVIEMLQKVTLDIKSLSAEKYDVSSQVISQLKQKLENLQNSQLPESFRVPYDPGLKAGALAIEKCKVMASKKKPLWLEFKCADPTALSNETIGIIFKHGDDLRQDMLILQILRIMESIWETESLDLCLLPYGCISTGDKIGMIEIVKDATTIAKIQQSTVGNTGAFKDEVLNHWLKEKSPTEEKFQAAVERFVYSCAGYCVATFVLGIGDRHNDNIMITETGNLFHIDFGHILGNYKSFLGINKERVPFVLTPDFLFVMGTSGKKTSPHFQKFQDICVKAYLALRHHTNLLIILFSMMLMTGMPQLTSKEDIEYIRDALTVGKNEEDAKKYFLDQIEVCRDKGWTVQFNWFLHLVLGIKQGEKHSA

With `CC(C)(C)OC(=O)NCCn1cc(-c2ccc3ncc(-c4cnc(N)c(C(F)(F)F)c4)n3n2)ccc1=O` [Example 69, (2-{5-[3-(6-Amino-5-trifluoro-methyl-pyridin-3-yl)-imidazo [1,2-b]pyridazin-6-yl]-2-oxo-2H-pyridin-1-yl}-ethyl)-carbamic acid tert-butyl ester], the pIC50 at PI3K delta is 6.81; at PI3K beta, 5.84; on PI3K gamma, 5.61; at PI3K alfa it was 7.30.
Consider `NCCn1cc(-c2ccc3ncc(-c4cnc(N)c(C(F)(F)F)c4)n3n2)ccc1=O` [Example 70, 1-(2-Amino-ethyl)-5-[3-(6-amino-5-trifluoro-methyl-pyridin-3-yl)-imidazo [1,2-b]pyridazin-6-yl]-1H-pyridin-2-one], for which the pIC50 on PI3K delta is 7.20; on PI3K beta, 7.31; on PI3K gamma, 6.31; at PI3K alfa, 7.24.
The like results for `CC(=O)NCCCOc1ccc(-c2ccc3ncc(-c4cnc(N)c(C(F)(F)F)c4)n3n2)cc1` [Example 71, N-(3-{4-[3-(6-Amino-5-trifluoro-methyl-pyridin-3-yl)-imidazo [1,2-b]pyridazin-6-yl]-phenoxy}-propyl)-acetamide] were, in that order, 6.13, 5.58, 5.07 and 6.77.
As to `CC(C)S(=O)(=O)c1ccc(-c2cnc3ccc(-c4cnc(N)c(C(F)(F)F)c4)nn23)cc1` [Example 72, 5-{3-[4-(Propane-2-sulfonyl)-phenyl]-imidazo[1,2-b]pyridazin-6-yl}-3-trifluoro-methyl-pyridin-2-lamine], the pIC50 was 7.25 at PI3K delta, 6.63 at PI3K beta, 5.70 on PI3K gamma and 7.55 on PI3K alfa.
On to `CC(C)(C)OC(=O)NCCOc1ccc(-c2ccc3ncc(-c4cnc(N)c(C(F)(F)F)c4)n3n2)cc1` [Example 73, (2-{4-[3-(6-Amino-5-trifluoro-methyl-pyridin-3-yl)-imidazo [1,2-b]pyridazin-6-yl]-phenoxy}-ethyl)-carbamic acid tert-butyl ester], for which the pIC50 is 5.40 at PI3K delta, below 5.04 at PI3K beta, below 5.04 on PI3K gamma and 6.14 on PI3K alfa.
On to `NCCOc1ccc(-c2ccc3ncc(-c4cnc(N)c(C(F)(F)F)c4)n3n2)cc1` [Example 74, 5-{6-[4-(2-Amino-ethoxy)-phenyl]-imidazo [1,2-b]pyridazin-3-yl}-3-trifluoro-methyl-pyridin-2-ylamine], for which the pIC50 at PI3K delta was 6.79; at PI3K beta, 6.83; at PI3K gamma it was 5.84; at PI3K alfa it was 6.80.
The like results for `CC(=O)NCCOc1ccc(-c2ccc3ncc(-c4cnc(N)c(C(F)(F)F)c4)n3n2)cc1` [Example 75, N-(2-{4-[3-(6-Amino-5-trifluoro-methyl-pyridin-3-yl)-imidazo [1,2-b]pyridazin-6-yl]-phenoxy}-ethyl)-acetamide] were, in that order, 6.87, 6.19, 5.51 and 7.12.
The like results for `CC(=O)NCCn1cc(-c2ccc3ncc(-c4cnc(N)c(C(F)(F)F)c4)n3n2)ccc1=O` [Example 76, N-(2-{5-[3-(6-Amino-5-trifluoro-methyl-pyridin-3-yl)-imidazo [1,2-b]pyridazin-6-yl]-2-oxo-2H-pyridin-1-yl}-ethyl)-acetamide] were, in that order, 6.82, 6.17, 5.49 and 6.80.
On the same counts, the results for `COc1cccc(-c2ccc3ncc(-c4cnc(N)c(C(F)(F)F)c4)n3n2)c1` [Example 77, 5-[6-(3-Methoxy-phenyl)-imidazo [1,2-b]pyridazin-3-yl]-3-trifluoro-methyl-pyridin-2-ylamine] are 6.21, 5.95, 5.59 and 6.72.
Consider `COc1cccc(-c2ccc3ncc(-c4cnc5[nH]ccc5c4)n3n2)c1` [Example 78, 6-(3-Methoxy-phenyl)-3-{1H-pyrrolo [2.3-b]pyridin-5-yl)-imidazo [1,2-b] pyridazine], for which the pIC50 is 5.98 on PI3K delta, 5.69 on PI3K beta, 5.39 on PI3K gamma and 6.89 on PI3K alfa.
On the same counts, the results for `Nc1ncc(-c2ccc3ncc(-c4ccc(C(=O)NCCN5CCOCC5)cc4)n3n2)cc1C(F)(F)F` [Example 80, 4-[6-(6-Amino-5-trifluoro-methyl-pyridin-3-yl)-imidazo [1,2-b]pyridazin-3-yl]-N-(2-morpholin-4-yl-ethyl)-benzamide] are 7.24, 6.68, 5.94 and 7.82.
On the same counts, the results for `Nc1ncc(-c2ccc3ncc(-c4ccc(C(=O)NCCCN5CCOCC5)cc4)n3n2)cc1C(F)(F)F` [Example 81, 4-[6-(6-Amino-5-trifluoromethyl-pyridin-3-yl)-imidazo [1,2-b]pyridazin-3-yl]-N-(3-morpholin-4-yl-propyl)-benzamide] are 7.89, 7.09, 6.20 and 7.68.
Consider `CC(=O)N1CCN(C(=O)c2ccc(-c3cnc4ccc(-c5cnc(N)c(C(F)(F)F)c5)nn34)cc2)CC1` [Example 82, 1-(4-{4-[6-(6-Amino-5-trifIuoro-methyl-pyridin-3-yl)-imidazo [1,2-b]pyridazin-3-yl]-benzoyl}-piperazin-1-yl)-ethanone], for which the pIC50 was 8.15 on PI3K delta, 6.77 on PI3K beta, 6.28 at PI3K gamma and 7.74 at PI3K alfa.
On the same counts, the results for `CN(C)C(=O)c1ccc(CNC(=O)c2ccc(-c3cnc4ccc(-c5cnc(N)c(C(F)(F)F)c5)nn34)cc2)cc1` [Example 83, N-(4-N-dimethylacetyl-benzyl)-4-[6-(6-amino-5-trifluoro-methyl-pyridin-3-yl)-imidazo [1,2-b]pyridazin-3-yl]-benzamide] are 7.64, 6.78, 6.25 and 7.57.
The like results for `CC(=O)c1ccc(CNC(=O)c2ccc(-c3cnc4ccc(-c5cnc(N)c(C(F)(F)F)c5)nn34)cc2)cc1` [Example 84, N-(4-Acetyl-benzyl)-4-[6-(6-amino-5-trifluoromethyl-pyridin-3-yl)-imidazo [1,2-b]pyridazin-3-yl]-benzamide] were, in that order, 6.51, 5.26, 5.49 and 7.06.
On the same counts, the results for `Nc1ncc(-c2ccc3ncc(-c4ccc(C(=O)N5CCN(Cc6ccccn6)CC5)cc4)n3n2)cc1C(F)(F)F` [Example 85, {4-[6-(6-Amino-5-trifluoromethyl-pyridin-3-yl)-imidazo[1,2-b]pyridazin-3-yl]-phenyl}-(4-pyridin-2-ylmethyl-piperazin-1-yl)-methanone] are 7.82, 6.47, 6.89 and 7.72.
As for `CC(C)C(=O)NCCOc1ccc(-c2ccc3ncc(-c4cnc(N)c(C(F)(F)F)c4)n3n2)cc1` [Example 86, N-(2-{4-[3-(6-Amino-5-trifluoro-methyl-pyridin-3-yl)-imidazo [1,2-b]pyridazin-6-yl]-phenoxy}-ethyl)-isobutyramide], the pIC50 is 7.01 on PI3K delta, 6.15 at PI3K beta, 6.95 on PI3K gamma and 7.03 at PI3K alfa.
The like results for `CNc1ncc(-c2cnc3ccc(-c4cnc(N)c(C(F)(F)F)c4)nn23)cn1` [Example 87, {5-[6-(6-Amino-5-trifluoro-methyl-pyridin-3-yl)-imidazo [1,2-b]pyridazin-3-yl]-pyrimidin-2-yl)-methylamine] were, in that order, 7.74, 8.00, 5.91 and 7.54.
On the same counts, the results for `Nc1ncc(-c2ccc3ncc(-c4ccc(OCCn5cccn5)cc4)n3n2)cc1C(F)(F)F` [Example 88, 5-{3-[4-(2-Pyrazol-1-yl-ethoxy)-phenyl]-imidazo[1,2-b]pyridazin-6-yl}-3-trifluoro-methyl-pyridin-2-ylamine] are 6.83, 6.00, 5.61 and 6.89.
